Laboratory results as given in patent publication US8293873B2, “Combination of amino acid solution and a gelatin derivative for inhibiting renal up-take” (BioSynthema Inc., priority 2006, dated 2012).

Tested on: kidney uptake of [177Lu-DOTA0,Tyr3]octreotate
Assay: Kidney uptake of [177Lu-DOTA0,Tyr3]octreotate measured by NanoSPECT in rats
Assay type: in vivo, Male Lewis rats
Method: For reduction of kidney rats were injected with 20 mg Gelofusine, 100 mg lysine or the combination. Kidney uptake was measured by SPECT scans with a […] multi-pinhole camera (NanoSPECT, Bioscan) at 24 h, 5 and 7 days pi. Kidney uptake was quantified by VOI analysis.

`NCCCC[C@H](N)C(=O)O` [lysine] was tested, and the “inhibition of kidney uptake of [177Lu-DOTA0,Tyr3]octreotate” value (24 h pi, 555 MBq, 20 mg Gelofusine, 100 mg lysine or the combination, SPECT VOI analysis) was 37%±6% and the “reduction of kidney uptake with an overdose of lysine alone” value (rats, overdose of lysine alone) was “did not improve the reduction of the kidney uptake”.
